# Assay results from US11807852B2, “Compositions and methods for reactivating latent immunodeficiency virus” (The J. David Gladstone Institutes, a testamentary trust …, priority 2014, dated 2023).
# Entries after “also recorded” stand apart in the source; their conditions may differ.
# Experiments:
# [1] = tested on: latent HIV-1 in CD4+ T cells from HIV-1-infected individuals; test: Intracellular HIV-1 mRNA (ddPCR) in CD4+ T cells from HIV-1-infected individuals treated ex vivo; format: cell-based
# Text: Four aviremic HIV-1-infected individuals were recruited from the SCOPE cohorts at the University of California. San Francisco. Table 2 details the characteristics of the study participants.
# Peripheral blood mononuclear cells (PBMCs) from whole blood or continuous flow centrifugation leukapheresis product were purified using density centrifugation on a Ficoll-Hypaque gradient. Resting CD4^+ lymphocytes were enriched by negative depletion with an EasySepHuman CD4^+ T Cell Isolation Kit (Stemcell). Cells were cultured in RPMI medium supplemented with 10% fetal bovine serum, penicillin/streptomycin and 5 μM saquinavir. Five million resting CD4′ lymphocytes were stimulated with latency-reversing agents (LRAs) at the indicated concentrations (20-500 nM AZ391, 100 nM JQ1, 25 μl/1×10^6 T cells αCD3/αCD28 Dynabeads (Life Technologies) for 48 hours. After LRA treatment, cells were collected, lysed and total RNA was isolated with an RNeasy kit (Quiagen). A Superscript III One-Step RT-PCR system (Life Technologies) was used to generate and pre-amplify cell-associated viral mRNA. Reaction mixes contained 15 μl of a PCR mix containing reaction mix, Superscript III, primers (900 nM final concentration) and 10 μl purified RNA. Pre-amplification was carried out using the following steps: reverse transcription at 50° C. for 30 min, denaturation at 95° C. for 2 min, 10 cycles of amplification (94° C. 15 s, 55° C. 30 s, 68° C. 5 min) on a GeneAmp PCR system 9700 (Thermo Fisher). Subsequently, droplet digital PCR (ddPCR) was applied to quantify pre-amplified cDNA. Each 25 μl ddPCR mix comprised the ddPCR Probe Supermix (no dUTP), 900 nM primers, 250 nM probe, and 4 μl cDNA. The following cycling conditions were used: 10 minutes at 95° C. […] Finally, samples were amplified on a BioRad C1000 Thermocycler and analyzed using a BioRad QX100 ddPCR Reader. […]
# Next, AZ391 was tested in CD4^+ T cells from HIV-1-infected individuals on suppressive ART. […] After 48 hours, levels of intracellular HIV-1 mRNA were measured by droplet digital RT-PCR using a previously published primer/probe set (Laird et al., 2015). […]
# SMYD2 = SMYD2 (Homo sapiens, UniProt Q9NRG4); test: In vitro SMYD2 methylation assay of histone H4; format: biochemical; design: purchased Sigma-Aldrich
# Protocol: In vitro Methylation assays were performed as described (Nishioka et al., 2002). For reactions, 2 gtg of histones (isolated from HEK293T cells), recombinant histone 4 (New England Biolabs), synthetic histone 4 as 1-21 and as 15-24 peptides (Cayman Chemical), or synthetic histone H4 as 1-21 with a K20A mutation (GenScript) were incubated with recombinant WT SMYD2 (Sigma-Aldrich) or SMYD2 Y240F (Active Motif) in a buffer containing 50 mM Tris-HCl, pH 9, 0.01% Tween 20, 2 mM DTT and 1.1 μCi of H3-labeled SAM (Perk-in Elmer) overnight at 30° C. Reaction mixtures were fractionated on 15% SDS-PAGE for proteins or on 10-20% Tris-Tricine gradient gels for peptides (BioRad). After Coomassie staining, gels were treated with Amplify. (GE Healthcare) for 30 min, dried and exposed to hyperfilm (GE Healthcare) overnight.
# [2] = tested on: A2 J-Lat cells, A72 J-Lat cells, and primary CD4+ T cells; test: ApoTox-Glo Triplex Assay: viability, cytotoxicity, caspase-3/7; format: cell-based; details: A2, A72 J-Lat cells and primary CD4+ T cells from 2 blood donors
# Protocol: FIGS. 22A-D provide data showing the viability, cytotoxicity and apoptosis of cells treated with SMYD2 inhibitor X2. ApoTox-Glo™ Triplex Assays (Promega) were performed in AZ391-treated A2 J-Lat cells (A), A72 J-Lat cells (B), and primary CD4^+ T cells from 2 independent blood donors (C) and (D). […] All measurements were repeated at least three times and an average of one experiment of three technical replicates (±SD) is shown.
# Sequence of SMYD2 (Q9NRG4 whole entry): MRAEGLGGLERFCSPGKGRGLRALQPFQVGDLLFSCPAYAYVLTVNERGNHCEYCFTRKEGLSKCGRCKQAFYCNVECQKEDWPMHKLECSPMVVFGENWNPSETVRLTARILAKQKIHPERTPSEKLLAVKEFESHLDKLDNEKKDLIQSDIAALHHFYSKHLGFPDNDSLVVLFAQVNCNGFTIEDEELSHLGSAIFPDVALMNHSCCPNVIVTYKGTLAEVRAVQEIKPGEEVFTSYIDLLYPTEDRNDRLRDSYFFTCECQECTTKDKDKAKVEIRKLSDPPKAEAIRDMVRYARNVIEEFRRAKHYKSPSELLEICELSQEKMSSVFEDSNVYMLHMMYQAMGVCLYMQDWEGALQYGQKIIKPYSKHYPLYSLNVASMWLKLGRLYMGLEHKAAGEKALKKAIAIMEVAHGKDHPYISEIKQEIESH
compound,measurement,setting,value
N#Cc1cc(C(=O)NCCCN2CCCC2)cc(-c2ccccc2N2CCN(CCc3c[nH]c4ccccc34)CC2)c1 [AZ391],mean increase of intracellular HIV-1 mRNA levels,"[1]; 500 nM, 48 hours, three additional donors",1.5-10 fold
same,"intracellular HIV-1 mRNA, combination effect",[1]; combination with JQ1,no additive or synergistic effects
same,intracellular HIV-1 mRNA levels,"[1]; increasing concentrations (maximal 500 nM), 48 hours, one individual",increased intracellular HIV-1 mRNA levels in a dose-dependent manner
same,methylation of recombinant human histone H4 by SMYD2,"SMYD2; full-length histone H4, 3H-SAM autoradiography",inhibited
same,methylation of synthetic histone H4 peptides by SMYD2,SMYD2; peptides aa 1-21 and aa 15-24,suppressed
same,"viability, cytotoxicity and caspase-3/7 activity",[2],reduced cell viability and increased cytotoxicity and caspase-3/7 activity at concentrations above 5 μM; also recorded: did not reduce viability nor increase cytotoxicity and caspase-3/7 activity at concentrations lower than 5 μM
